Data on 1 compound can be found in patent US20250032580A1, “USE OF ADNF POLYPEPTIDES IN THERAPY” (RAMOT AT TEL-AVIV UNIVERSITY LTD., priority 2021, published 2025).

Data set [1] deals with SHANK3 mice. In words: Grooming (repetitive behavior). In kind it is in vivo, mouse. Conditions: sham-treated vs NAP-treated SHANK3 mice; data not shown. As for the experimental part:
Repetitive behavior, a key autistic feature, was also evaluated by measuring grooming frequency and duration.

The conditions of data set [2]: Ivashko-Pachima and Gozes 2020; cited from earlier work.
The subject of a further data set is Tyr mice. The experiment in a line: AT8 (hyperphosphorylated Tau) immunohistochemistry. In kind it is in vivo, mouse. Also on record: key to NAP efficacy: tauopathy, hyperphosphorylated Tau deposits: corrections by NAP treatment (+). As for the experimental part:
AT8 Immunohistochemistry—experiment was performed as previously described (100). Mice were treated for 6 weeks with daily intranasal DD/NAP and were euthanized at 10.21±0.05 weeks of age.

Data set [3] deals with SHANK3 mice. In words: Eubacteriaceae (EubV3) microbiota. In kind it is in vivo, mouse. Conditions: data not shown.
Data set [4] deals with SHANK3 mouse model (InsG3680 mutation). The experiment in a line: Social recognition test. Format: in vivo. The note with it: NAP-treated SHANK3 mouse model. How it is done: To this end, mice with the ASD-linked InsG3680 mutation were used. Two behavioral assessments were performed on make mice: • 1) Open field behavior attesting to anxiety and depression (Open field behavioral assessment technology was previously described, e.g.); and • 2) Social recognition behavior, related to autistic traits (the social recognition test was previously described, e.g..
In the social recognition test, the results measured both time exploring and frequency exploring the mouse or cup, either directly or in the chamber where the mouse or cup only are present (FIG. 13).

In data set [5] the test system is adult compromised patients. The note with it: cited from earlier work.
In data set [6] the test system is Shank3-Adnp-actin interactions. In words: Actin co-immunoprecipitations from mouse brain extracts. The source says: De novo heterozygous mutations in ADNP reproduced the autistic ADNP syndrome. ADNP mutations impair microtubule (MT) function, essential for synaptic activity. The ADNP MT-associating fragment NAPVSIPQ (NAP) (SEQ ID NO 2) contains an MT end-binding protein interacting domain, SxIP (mimicking the active-peptide, SKIP, SEQ ID NO 21). The inventors hypothesized that not all ADNP mutations are similarly deleterious and that the NAPV portion of NAPVSIPQ is biologically active. Using the eukaryotic linear motif (ELM) resource, the inventors identified a Src homology 3 (SH3) domain-ligand association site in NAP responsible for controlling signaling pathways regulating the cytoskeleton, namely NAPVSIP (SEQ ID NO: 2). Altogether, the inventors mapped multiple SH3-binding sites in ADNP. […] Site-directed-mutagenesis, abolishing the p.Lys408Valfs*31 SH3-binding motif, produced MT toxicity. […] Lastly, SH3 and multiple ankyrin repeat domains protein 3 (SHANK3), a major autism gene product, interact with the cytoskeleton through an actin-binding motif to modify behavior.

A further data set concerns male Tyr mice. The experiment in a line: Visual evoked potentials (VEP). Also on record: key to NAP efficacy: visual evoked potential: corrections by NAP treatment (+). In kind it is in vivo, mouse. As for the experimental part:
VEP—5.72±0.52-week-old male mice were used for VEP measurements. Animals were treated for 3 days with 0.1 ml S.C saline, recorded, and then followed by 4 daily S.C doses of either 1 μg NAP (in 0.1 ml saline) or 0.1 ml saline followed by another VEP recording.

[7] abbreviates: Tyr mouse, first symbol of cell.
Where [8] appears, read: male Tyr mice, 6 weeks daily intranasal NAP.

In the case of `CC[C@H](C)[C@H](NC(=O)[C@H](CO)NC(=O)[C@@H](NC(=O)[C@@H]1CCCN1C(=O)[C@H](C)NC(=O)[C@@H](N)CC(N)=O)C(C)C)C(=O)N1CCC[C@H]1C(=O)N[C@@H](CCC(N)=O)C(=O)O` [NAP, NAPVSIPQ], the Grooming frequency entry in the data set on SHANK3 mice [1] is on record as “higher grooming frequency than did NAP-treated SHANK3 mice”. In data set [2], the Cell penetration entry is given as “bioavailable by endocytosis”. The “Combined AT8- and AT180-positive cells” value in the data set with Tyr mice (Tyr mice, both sexes, data not shown) is reported as “correction by NAP in both sexes”. Further, the “NAP efficacy: tauopathy, hyperphosphorylated Tau deposits” value in the data set on Tyr mice (setting [7]) is recorded as “+/+”. Also, the AT8 staining entry with Tyr mice (WT males, data not shown) is “did not display a NAP effect”. In the data set on Tyr mice (setting [8]), the “Decrease of AT8 positive cells in the hippocampus” value is given as approximately 2.57 fold and the “Reversal of AT8 staining in the visual cortex” value is reported as approximately 2 fold. For the same compound, the “EubV3 trend to change as a consequence of the SHANK3 mutation” value with SHANK3 mice [3] is on record as “this trend was not observed in the treated mice”. For the same compound, the “Social recognition, mouse vs cup exploration” value in data set [4] is listed as “normalization of behavior”. In data set [5] (adult patients), the Clinical efficacy result is “enhancement of cognitive function and functional activities of daily living”. Also, in data set [5] (hundreds of adult compromised patients), the Safety and tolerance entry was “proven safety and tolerance”. Further, in data set [6], the Shank3-Adnp-actin interactions result was “NAP-mediated normalization”. The “NAP efficacy: visual evoked potential” value in the data set with male Tyr mice (setting [7]) was “+/+”. For the same compound, the VEP traces result with male Tyr mice (male Tyr mice, 4 consecutive daily doses) is “normalizing these effects”. Besides, the “Decrease of VEP P2 AUC” value in the data set on male Tyr mice (male Tyr mice, 4 daily s.c. doses of 1 μg NAP, 100, 300 and 3000 mcd) was 1.6-2.3 fold. In addition, the “VEP N2 AUC” value in the data set on male Tyr mice (male Tyr mice, 100, 300 and 3000 mcd) is “same significant change”. In addition, in the data set with male Tyr mice (male Tyr mice, 300 and 3000 mcd), the “VEP P3 AUC” value was “significant NAP effect”.
